PMC3929365, “Benzimidazoisoquinolines: A New Class of Rapidly Metabolized Aryl Hydrocarbon Receptor (AhR) Ligands that Induce AhR-Dependent Tregs and Prevent Murine Graft-Versus-Host Disease” (PLoS ONE, 2014)

What was measured:
GVHD = assay: Graft-versus-host disease (GVHD) model, 15 days; assay type: in vivo; conditions: for GVHD pathology (clinical pathology score): 10 mg/kg then 2 mg/kg/day, day 15
Protocol: (§1) Splenocytes and lymphocytes were harvested from C57Bl/6 mice. In some experiments, T cells were purified by negative selection using a Pan-T kit (Miltenyi Biotec) and stained with 2 µM carboxyfluorescein succinimidyl ester (CFSE) (Life Technologies). At least 2×10^7 purified T cells or approximately 1×10^8 pooled splenocytes and lymphocytes were injected i.v. into B6D2F1 host mice to initiate the GVH response. GVHD pathology was assessed on a scale of 0 to 3 (0 = normal, 1 = moderate morbidity, 2 = severe morbidity, 3 = death) according to the following five criteria: weight-loss, posture, activity, fur texture and death and reported as a Clinical GVHD Score.
(§2) Host mice were treated daily with vehicle, 10-Cl-BBQ or BBQ analogues by i.p. injection. The vehicle consisted of a mixture of 6.7% anisole and peanut oil. Mice treated with a single i.p. dose of 15 µg TCDD/kg body weight in the same vehicle were used as positive controls.
Figure 4 10-Cl-BBQ suppresses GVHD in an AhR-dependent manner. A) B6D2F1 host mice were injected with wild-type (WT) or AhR-deficient (AhR^−/−) splenocytes to initiate the GVH response; mice were given 10-Cl-BBQ or vehicle treatments daily for 15 days. A single loading dose of 10 mg/kg 10-Cl-BBQ was given at the time of donor cell injection and a maintenance dose of 2 mg/kg was given every day thereafter until the end of the experiment. The progression of GVHD was monitored and a clinical pathology score as defined in Methods was calculated. GVHD was suppressed by 10-Cl-BBQ only if the donor cells expressed AhR. In a separate study, B6D2F1 host mice in groups of 6 were injected with splenocytes from C57Bl/6 mice to initiate the GVH response, and treated with 10-Cl-BBQ or vehicle daily for 15 days as in (A). TCDD (15 µg/kg) was given to an additional group of 6 mice on day 0 as a positive control. […] The donor cells were identified in the host spleen as the H-2D^d negative population.* = p<0.05 vs vehicle control. TEXT PRINTED IN THE PICTURE: (C) TCDD: 17 | (C) 10-Cl-BBQ: 11 | (E) TCDD: 29 | (E) 10-Cl-BBQ: 35 DOUBTS OF THE COPYIST ABOUT THIS PICTURE: Panels C and E: the numbers inside the flow cytometry plots are printed without any measure or unit, so they are copied as bare numbers (plot axes: CD44 vs CD45RB in C, CD19 vs H-2D^d in E). / The Vehicle control plots also print numbers (C: 36; E: 2). They are not listed in lines because Vehicle is a control, not a substance.

donor CD4+ T cells = assay: AhR-Treg phenotype of alloactivated donor CD4+ T cells 48 h after initiating the GVH response; assay type: in vivo, B6D2F1 host mice
Protocol: as §1, §2
Antibodies to CTLA-4, Foxp3, ICOS, CD62L, CD25, CD19, CD44) and a fixable viability dye were purchased from eBiosciences. Additional antibody reagents included CD4 and CD8 (Life Technologies); H-2D^d (Biolegend) and CD45RB (PharMingen). After surface staining, the cells were fixed and permeabilized with Cytofix/cytoperm (BD Biosciences) for intracellular CTLA-4 stain. The flow cytometry data were acquired on an FC500 instrument (Beckman Coulter) and the data were analyzed using WinList 7.0 (Verity Software House). Fluorescence minus one (FMO) controls were used for setting histogram gates during the analysis.
Figure 3 10-Cl-BBQ induces an AhR-dependent Treg phenotype 48 h after initiating the GVH response. On day 0, B6D2F1 host mice in groups of 5 were injected with CFSE-labeled C57Bl/6 T cells and given 15 mg/kg 10-Cl-BBQ, 15 µg/kg TCDD or vehicle by i.p. injection. At 24 h, an additional dose of 7 mg/kg 10-Cl-BBQ or vehicle was given. […] Treatment mean ± SEM is shown in the quadrant of interest. […] C) AhR-dependent induction of the donor Treg phenotype by 10-Cl-BBQ. On day 0, B6D2F1 host mice in groups of 5 were injected with donor T cells obtained from AhR^+/+ or AhR^−/− C57Bl/6 mice. Host mice were treated with 2 mg/kg10-Cl-BBQ or vehicle immediately following donor cell transfer and again at 24 hr. […] D) Dose-dependent induction of Treg phenotype by 10-Cl-BBQ. On day 0, B6D2F1 host mice in groups of 3–5 were injected with C57Bl/6 T cells. Mice were immediately treated with 0, 0.4, 2 or 10 mg/kg 10-Cl-BBQ and again on day 1. On day 2, expression of markers associated with the AhR-Treg phenotype increased as the dose of 10-Cl-BBQ increased. E) In the same mice as in D, lymph nodes were harvested and analyzed for expression of genes that were previously shown to increase under the same GVH conditions with TCDD treatment (13). […] Changes in gene expression were calculated relative to the β-actin gene, and the fold-induction was calculated by the ΔΔCt method using the vehicle-treated samples as a control. * = p<0.05 relative to vehicle treatment. […]

## O=c1c2cccc3cccc(c32)c2nc3ccc(Cl)cc3n12 [10-Cl-BBQ, 10-chloro-7H-benzimidazo[2,1-a]benzo[de]isoquinolin-7-one]
GVHD; AhR-deficient donor cells
  GVHD pathology (clinical pathology score): not affected
GVHD; AhR-wild type donor cells
  GVHD pathology (clinical pathology score): significantly reduced
GVHD; daily treatment during the GVH response
  overt toxicity: without overt toxicity
GVHD; day 15, 10 mg/kg then 2 mg/kg daily
  engraftment of donor cells in host spleen: significantly reduced the engraftment of donor cells
Donor CD4+ T cells; 0.4 mg/kg/day for two days
  changes in parameters associated with AhR-Tregs: failed to induce significant changes
Donor CD4+ T cells; AhR−/− donor T cells, 2 mg/kg at 0 and 24 hr, day 2
  induction of the Treg phenotype with AhR-deficient donor T cells: failed to induce the Treg phenotype
Donor CD4+ T cells; i.p. for two days after initiation of the GVH response
  minimum effective dose to induce Tregs: 2.0 mg/kg/day
